Results reported in paper PMC7702721 (The AAPS journal, 2016).
Like-named read-outs stand apart in the source and are kept apart here.

How the values were obtained:
Caco-2 monolayer [1] = assay: Transporter inhibition experiments in the Caco-2 monolayer; details: kaempferol 10 μM
[2] = tested on: rat hepatic and segmental intestinal preparations; assay: Kaempferol glucuronidation via rat hepatic and segmental intestinal microsomes; assay type: in vitro ADME, SD rats
[3] = In situ four-site rat intestinal perfusion of kaempferol
[4] = Pharmacokinetic study in rats after oral administration of kaempferol; assay type: in vivo, Sprague–Dawley (SD) rats; details: for AUC0-t / Cmax / MRT0-t / Tmax / AUC0−∞ / MRT last: plasma; for AUC0−∞: predicted AUC
[5] = assay type: in vivo, FVB mice; details: oral kaempferol 10 mg/kg; for fold higher plasma Cmax and AUC0-t in absence of Bcrp versus wild-type: Bcrp1^−/− vs wild-type FVB mice
Caco-2 monolayer [6] = assay: Bidirectional efflux of kaempferol-glucuronides across the Caco-2 monolayer; assay type: in vitro ADME; details: 10 μM kaempferol loaded AP or BL, 2 h
[7] = rat, in vivo
[8] = tested on: hepatic and intestinal S9 fractions; assay type: in vitro ADME, FVB mice; details: kaempferol 0.125 μM
[9] = ref [20]; cited from earlier work
[10] = tested on: rat hepatic and segmental intestinal preparations; assay: Kaempferol sulfation via rat hepatic and segmental intestinal S9 fraction; assay type: in vitro ADME, SD rats; details: kaempferol 0.125, 0.5 and 1.25 μM, S9 fraction 0.02 mg/mL
[11] = tested on: hepatic and intestinal S9 fractions; assay type: in vitro ADME, FVB mice; details: kaempferol 1.25 μM
[12] = perfusion with 5 μM or 20 μM kaempferol
[13] = male SD rats, oral kaempferol 10 mg/kg, n = 6
[14] = male SD rats, oral kaempferol 20 mg/kg, n = 6
[15] = male, Sprague-Dawley, rat, po, 10 mg/kg
[16] = male, Sprague-Dawley, rat, po, 20 mg/kg

COc1ccc2c3c([nH]c2c1)[C@H](CC(C)C)N1C(=O)[C@H](CCC(=O)OC(C)(C)C)NC(=O)[C@@H]1C3 [Ko143]
effect on bidirectional efflux rates and Fmet of the two glucuronides (Caco-2 monolayer [1]; Ko143 10 μM): significantly decreased | effect on efflux rates and Fmet of K-7-S (Caco-2 monolayer [1]; Ko143 10 μM): No statistical differences

O=C(O)[C@H]1O[C@@H](Oc2cc(O)c3c(=O)c(O)c(-c4ccc(O)cc4)oc3c2)[C@H](O)[C@@H](O)[C@@H]1O [K-7-G, kaempferol-7-glucuronide]
glucuronide formation by liver microsomes, K-7-G versus K-3-G ([2]; rat liver microsomes): more K-7-G than K-3-G | amount of K-7-G in the perfusate compared with K-3-G ([3]; 20 μM perfusion): slightly higher than that of K-3-G in duodenum and jejunum, but was significantly higher in ileum and colon | regional excretion of metabolite in the perfusate [3, 12]: highest excretion in duodenum and jejunum and the lowest excretion in colon | AUC0-t [4, 13]: 310 ± 95 µmol·min/L | Cmax [4, 13]: 5.29 ± 2.97 µM | MRT0-t [4, 13]: 2.1 ± 0.617 h | Tmax [4, 13]: 0.292 ± 0.0833 h | AUC0-t [4, 14]: 802 ± 231 µmol·min/L | Cmax [4, 14]: 9.55 ± 3.37 µM | MRT0-t [4, 14]: 2.17 ± 0.717 h | Tmax [4, 14]: 0.267 ± 0.0917 h | AUC0−∞ [4, 13]: 314 ± 96 µmol·min/L | AUC0−∞ [4, 14]: 811 ± 311 µmol·min/L | AUC0-t ([5]; Bcrp1^−/− FVB mice): 464 ± 234 µmol·min/L | Cmax ([5]; Bcrp1^−/− FVB mice): 14.9 ± 3.6 µM | MRT ([5]; Bcrp1^−/− FVB mice): 0.757 ± 0.372 h | fold higher plasma Cmax and AUC0-t in absence of Bcrp versus wild-type [5]: > 4 fold | AUC0-t ([5]; Mdr1a^−/− FVB mice): 63.1 ± 15.3 µmol·min/L | Cmax ([5]; Mdr1a^−/− FVB mice): 1.12 ± 0.68 µM | MRT ([5]; Mdr1a^−/− FVB mice): 4.07 ± 0.367 h | AUC0-t ([5]; Mrp1^−/− FVB mice): 13.9 ± 12.0 µmol·min/L | Cmax ([5]; Mrp1^−/− FVB mice): 0.839 ± 0.853 µM | MRT ([5]; Mrp1^−/− FVB mice): 0.43 ± 0.277 h | AUC0-t ([5]; Mrp2^−/− FVB mice): 392 ± 78 µmol·min/L | Cmax ([5]; Mrp2^−/− FVB mice): 14.3 ± 4.8 µM | MRT ([5]; Mrp2^−/− FVB mice): 1.52 ± 0.302 h | AUC0-t ([5]; wild-type FVB mice): 114 ± 79 µmol·min/L | Cmax ([5]; wild-type FVB mice): 2.91 ± 1.94 µM | MRT ([5]; wild-type FVB mice): 1.36 ± 0.57 h | efflux toward the BL side compared with that toward the AP side (Caco-2 monolayer [6]): not more than twice higher

CCCCC/C=C\C\C=C/C=C/C=C/[C@@H](SC[C@H](NC(=O)CC[C@H](N)C(=O)O)C(=O)NCC(=O)O)[C@@H](O)CCCC(=O)O [LTC4]
effect on Fmet (BL to AP) of the three metabolites (Caco-2 monolayer [1]; LTC4 0.1 μM): decreased | effect on intracellular amounts of K-3-G and K-7-G (AP to BL) (Caco-2 monolayer [1]; LTC4 0.1 μM): significantly increased | effect on amounts of the three metabolites in the AP side (Caco-2 monolayer [1]; LTC4 0.1 μM, except K-7-S (AP to BL)): reduced

O=c1c(O)c(-c2ccc(O)cc2)oc2cc(OS(=O)(=O)O)cc(O)c12 [K-7-S, kaempferol-7-sulfate]
regional excretion of metabolite in the perfusate [3, 12]: highest excretion in colon and lowest excretion in ileum | Cmax [4, 15]: 0.332 ± 0.085 µM | MRT last [4, 15]: 17.5 h | Tmax [4, 15]: 18.7 h | Cmax [4, 16]: 0.703 ± 0.296 µM | MRT last [4, 16]: 18.2 h | Tmax [4, 16]: 15.2 h | AUC0-t [4, 13]: 454 ± 90 µmol·min/L | AUC0-t [4, 14]: (1.15 ± 0.22) ×10^3 min•μmol/L | AUC0−∞ [4, 13]: 536 ± 164 µmol·min/L | AUC0−∞ [4, 14]: (1.65 ± 0.56) ×10^3 min•μmol/L | time after dose at which still detected in plasma ([4]; rats, oral kaempferol): 36 h | AUC0-t ([5]; Bcrp1^−/− FVB mice): 156 ± 55 µmol·min/L | AUC0-t ([5]; Mdr1a^−/− FVB mice): 36.7 ± 37.0 µmol·min/L | AUC0-t ([5]; Mrp1^−/− FVB mice): 6.72 ± 5.83 µmol·min/L | AUC0-t ([5]; Mrp2^−/− FVB mice): 102 ± 10 µmol·min/L | Cmax ([5]; male, FVB, mouse, plasma, po, 10 mg/kg, Cmax, wild-type FVB mice): 0.301 ± 0.185 µM | MRT ([5]; male, FVB, mouse, plasma, po, 10 mg/kg, MRT, wild-type FVB mice): 2.75 h | AUC0-t ([5]; wild-type FVB mice): 49.5 ± 38.6 µmol·min/L

O=C(O)[C@H]1O[C@@H](Oc2c(-c3ccc(O)cc3)oc3cc(O)cc(O)c3c2=O)[C@H](O)[C@@H](O)[C@@H]1O [K-3-G, kaempferol-3-glucuronide]
regional excretion of metabolite in the perfusate [3, 12]: highest excretion in duodenum and jejunum and the lowest excretion in colon | AUC0-t [4, 13]: (1.74 ± 0.47) ×10^3 min•μmol/L | Cmax [4, 13]: 24.6 ± 7 µM | MRT0-t [4, 13]: 1.48 ± 0.233 h | Tmax [4, 13]: 0.333 ± 0.148 h | AUC0-t [4, 14]: (2.79 ± 0.33) ×10^3 min•μmol/L | Cmax [4, 14]: 30.9 ± 5.5 µM | MRT0-t [4, 14]: 1.9 ± 0.467 h | Tmax [4, 14]: 0.4 ± 0.0917 h | AUC0−∞ [4, 13]: (1.76 ± 0.46) ×10^3 min•μmol/L | AUC0−∞ [4, 14]: (2.81 ± 0.33) ×10^3 min•μmol/L | AUC of K-3-G, times higher than that of K-7-G ([4]; rats, 10 mg/kg kaempferol): five | AUC of K-3-G, times higher than that of K-7-S ([4]; rats, 10 mg/kg kaempferol): four | Cmax and AUC of K-3-G relative to K-7-G ([4]; rats, oral kaempferol): threefold to fivefold higher | AUC0-t ([5]; Bcrp1^−/− FVB mice): 848 ± 123 µmol·min/L | Cmax ([5]; Bcrp1^−/− FVB mice): 18 ± 6.4 µM | MRT ([5]; Bcrp1^−/− FVB mice): 1.62 ± 0.362 h | fold higher plasma Cmax and AUC0-t in absence of Bcrp versus wild-type [5]: ~ 2 fold | AUC0-t ([5]; Mdr1a^−/− FVB mice): 143 ± 83 µmol·min/L | Cmax ([5]; Mdr1a^−/− FVB mice): 4.62 ± 1.14 µM | MRT ([5]; Mdr1a^−/− FVB mice): 1.88 ± 1.18 h | AUC0-t ([5]; Mrp1^−/− FVB mice): 38.0 ± 29.1 µmol·min/L | Cmax ([5]; Mrp1^−/− FVB mice): 1.75 ± 1.18 µM | MRT ([5]; Mrp1^−/− FVB mice): 0.557 ± 0.332 h | AUC0-t ([5]; Mrp2^−/− FVB mice): (1.28 ± 0.27) ×10^3 min•μmol/L | Cmax ([5]; Mrp2^−/− FVB mice): 32.3 ± 9.7 µM | MRT ([5]; Mrp2^−/− FVB mice): 1.51 ± 0.183 h | AUC0-t ([5]; wild-type FVB mice): 365 ± 195 µmol·min/L | Cmax ([5]; wild-type FVB mice): 8.92 ± 1.69 µM | MRT ([5]; wild-type FVB mice): 1.72 ± 0.483 h | efflux toward the BL side compared with that toward the AP side (Caco-2 monolayer [6]): approximately six times higher | detection in plasma during perfusion [7]: detected in plasma

O=c1c(O)c(-c2ccc(O)cc2)oc2cc(O)cc(O)c12 [Kaempferol, 3,4′,5,7-trihydroxyflavone]
glucuronidation rates by segment ([2]; kaempferol 1.25, 2.5 and 10 μM, microsomes 0.00318 mg/mL): high and low glucuronidation rates were observed in the small intestine and colon, respectively | decrease of sulfation rate versus wild-type ([8]; intestine S9, Mdr1a^−/− mice): ~47% | decrease of sulfation rate versus wild-type ([8]; intestine S9, Mrp1^−/− mice): ~ 25% | decrease of sulfation rate versus wild-type ([8]; intestine S9, Mrp2^−/− mice): ~79% | decrease of sulfation rate versus wild-type ([8]; liver S9, Mdr1a^−/− mice): ~39% | decrease of sulfation rate versus wild-type ([8]; liver S9, Mrp1^−/− mice): ~ 11% | decrease of sulfation rate versus wild-type ([8]; liver S9, Mrp2^−/− mice): ~59% | regional absorption of kaempferol [3, 12]: faster absorption in colon than in jejunum and ileum | Cmax [4, 15]: 0.305 ± 0.106 µM | MRT last [4, 15]: 0.437 h | Tmax [4, 15]: 0.445 h | Cmax [4, 16]: 0.647 ± 0.244 µM | MRT last [4, 16]: 2.47 h | Tmax [4, 16]: 0.3 h | AUC0-t [4, 13]: 10.3 ± 3.8 µmol·min/L | AUC0-t [4, 14]: 51.8 ± 17.2 µmol·min/L | AUC0−∞ [4, 13]: 11.4 ± 3.7 µmol·min/L | AUC0−∞ [4, 14]: 57.9 ± 13.6 µmol·min/L | Cmax of kaempferol, times lower than that of K-3-G ([4]; rats, oral kaempferol): approximately 50 times | Cmax of kaempferol, times lower than that of K-7-G ([4]; rats, oral kaempferol): ~16 times | time to reach Cmax ([4]; rats, oral kaempferol): ≤ 30 min | bioavailability [9]: lower than 2% | free kaempferol plasma concentration (below LLOQ) ([5]; at most periods, all strains of mice): < 3.9 nM | sulfation reaction rates by tissue [10]: highest reaction rates in liver | increase of glucuronidation rate versus wild-type ([11]; liver S9, Bcrp1^−/− mice): 32% | decrease of hepatic glucuronidation rate versus wild-type ([11]; liver S9, Mdr1a^−/− mice): ~30% | decrease of hepatic glucuronidation rate versus wild-type ([11]; liver S9, Mrp1^−/− mice): ~ 26% | decrease of hepatic glucuronidation rate versus wild-type ([11]; liver S9, Mrp2^−/− mice): ~ 11%

CN(C)C(=O)CCSC(SCCC(=O)O)c1cccc(/C=C/c2ccc3ccc(Cl)cc3n2)c1 (stereo not drawn) [MK571]
effect on intracellular amounts of the three metabolites (Caco-2 monolayer [1]; MK571 10 μM): did not significantly influence | effect on the three metabolites transported into BL side (Caco-2 monolayer [1]; MK571 10 μM): dramatically reduced | effect on efflux rates of the three metabolites toward the BL side (Caco-2 monolayer [1]; MK571 10 μM, except K-7-G (AP to BL)): significantly lowered
